Measured values: the supplement of paper PMC10307832

How the values were obtained:
Experiment in all cases: relative viability (nuclei count vs DMSO), 5 days (fraction); higher = more cells survive
[1] = compound: CC1=C(C(=O)N2C=CSC2=N1)CCN3CCC(=C(C4=CC=CC=C4)C5=CC=C(C=C5)F)CC3 + COc1cccc2cc(-c3nc([C@H]4CC[C@H](C(=O)O)CC4)n4ncnc(N)c34)[nH]c12 [OSI-027] (partner 0.5 µM)
How it was run: (§1)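 Relative viability divides the nuclei count in treated wells by that in vehicle wells. Lung cancer cell lines were seeded in 1536-well plates, dosed by pin tool the next day, and fixed and stained after 5 days in one step with final 0.05% Triton X-100, 1% formaldehyde and 1 ug/ml Hoechst. Dosing was a single drug or a fixed anchor-drug dose plus five library-drug doses (not always all listed) in √10 steps, and values are medians of duplicate plates imaged at 4×.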

[2] = compound: CC1=C(C(=O)N2C=CSC2=N1)CCN3CCC(=C(C4=CC=CC=C4)C5=CC=C(C=C5)F)CC3 + CS(=O)(=O)CCNCc1ccc(-c2ccc3ncnc(Nc4ccc(OCc5cccc(F)c5)c(Cl)c4)c3c2)o1 [Lapatinib] (partner 2 µM)
How it was run: as §1

[3] = compound: CC1=C(C(=O)N2C=CSC2=N1)CCN3CCC(=C(C4=CC=CC=C4)C5=CC=C(C=C5)F)CC3 + C[C@]1(O)C[C@@H](c2nc(-c3ccc4ccc(-c5ccccc5)nc4c3)c3c(N)nccn32)C1 [Linsitinib] (partner 1 µM)
How it was run: as §1

[4] = compound: CC1=C(C(=O)N2C=CSC2=N1)CCN3CCC(=C(C4=CC=CC=C4)C5=CC=C(C=C5)F)CC3 + Cc1nc(NC(=O)N2CCC[C@H]2C(N)=O)sc1-c1ccnc(C(C)(C)C(F)(F)F)c1 [Alpelisib] (partner 2 µM)
How it was run: as §1

Cell Line	relative viability ([1]; first compound 0.08 µM)	relative viability ([1]; first compound 0.253 µM)	relative viability ([1]; first compound 0.8 µM)	relative viability ([1]; first compound 2.53 µM)	relative viability ([1]; first compound 8 µM)	relative viability ([2]; first compound 0.08 µM)	relative viability ([2]; first compound 0.253 µM)	relative viability ([2]; first compound 0.8 µM)	relative viability ([2]; first compound 2.53 µM)	relative viability ([2]; first compound 8 µM)	relative viability ([3]; first compound 0.08 µM)	relative viability ([3]; first compound 0.253 µM)	relative viability ([3]; first compound 0.8 µM)	relative viability ([3]; first compound 2.53 µM)	relative viability ([3]; first compound 8 µM)	relative viability ([4]; first compound 0.08 µM)	relative viability ([4]; first compound 0.253 µM)	relative viability ([4]; first compound 0.8 µM)	relative viability ([4]; first compound 2.53 µM)	relative viability ([4]; first compound 8 µM)
NCI-H322M	0.522	0.509	0.547	0.596	0.442	0.581	0.613	0.612	0.554	0.611	0.808	0.924	0.926	1.01	0.702	0.769	0.85	0.897	0.804	0.8
NCI-H358	0.681	0.666	0.666	1.13	0.469	0.442	0.535	0.427	0.44	0.404	0.819	0.74	0.779	0.874	0.561	0.821	0.912	0.744	1.07	0.553
NCI-H460	0.951	0.633	0.605	0.712	0.191	0.629	1.32	1.06	0.93	0.496	0.475	0.729	0.783	1.13	0.435	0.54	0.588	0.366	0.621	0.221
NCI-H520	0.251	0.247	0.251	0.212	0.233	0.78	0.693	0.942	1.1	0.684	1.13	0.723	0.902	0.943	0.768	0.906	0.594	0.777	1.01	0.794
NCI-H596	0.668	0.788	0.746	0.827	0.41	1.05	1.17	1.06	0.989	1.06	0.935	1.1	1.2	1.03	0.755	0.396	0.478	0.624	0.503	0.426
NCI-H647	0.581	0.66	0.652	0.72	0.316	1.06	1.05	1.19	1.26	0.319	1.1	0.895	1.16	1.86	0.846	1.71	1.24	0.993	1.06	0.793
NCI-H650	0.513	0.489	0.551	0.504	0.531		0.883	0.838	1.03	0.646		0.81	0.779	0.878	0.608		1.12	1.29	1.09	0.794
NCI-H661	0.618	0.659	0.691	0.712	0.627	0.428	0.469	0.538	0.39	0.355	0.581	0.607	0.675	0.483	0.553	0.658	0.498	0.461	0.623	0.427
NCI-H727	0.52	0.51	0.527	0.638	0.45	0.778	0.674	0.757	0.984	0.553	0.194	0.227	0.298	0.437	0.295	0.507	0.509	0.493	0.738	0.425
NCI-H838	0.445	0.339	0.37	0.454	0.352	0.806	0.826	0.917	1.43	0.596	1.02	1.02	1.02	1.31	0.809	0.964	0.979	1.02	1.32	0.773
NCI-H1355	0.377	0.405	0.355	0.421	0.424	1.04	0.981	1.03	0.997	0.885	0.775	0.876	0.844	0.856	0.588	0.79	0.948	0.854	0.899	0.623
NCI-H1395	0.685	0.626	0.558	0.596	0.621	1.11	0.97	0.908	1	0.821	1.21	0.982	1.08	0.891	1.07	1.09	1.33	1.05	0.958	1.11
NCI-H1437	0.978	0.879	0.836	1.08	0.631		0.718	0.88	0.928	0.487		1.07	1.14	1.14	0.622		1.01	1.09	1.21	0.729
NCI-H1563	0.85	0.72	0.732	0.763	0.644	0.91	0.845	1	1.01	0.857	1.12	1.26	1.2	1.1	1.14	0.82	0.909	0.879	0.885	0.779
NCI-H1651	0.71	0.768	0.698	0.697	0.461	0.876	0.759	0.912	1.02	0.514	0.925	0.863	0.969	1.19	0.673	1.19	0.972	1.03	0.88	0.785
NCI-H1666	0.872	0.913	0.731	0.8	0.606	0.565	0.704	0.584	0.621	0.486	0.86	0.734	0.768	0.886	0.621	0.969	1.02	0.902	1.06	0.794
